In patent publication US20100298141A1, “SUBSTITUTED PYRIDINE N-OXIDE HERBICIDES” (E. I. DU PONT DE NEMOURS AND COMPANY, priority 2007, published 2010):

Key:
crabgrass [1] = experiment: Test A pre-/postemergence greenhouse test; assay type: in vivo, Digitaria sanguinalis; conditions: for Plant response rating, Crabgrass, Large: 0 to 100 scale where 0 is no effect and 100 is complete control; for Crabgrass, Large plant response rating: 0 to 100 scale
Summary of the method: (§1)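 Test compounds in non-phytotoxic solvent with surfactant were applied as a preemergence soil spray to seeded loam/sand pots and, concurrently, postemergence to plants at 2–10 cm, one- to two-leaf stage. About ten days in greenhouse, then injury visually rated against untreated controls.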

umbrella sedge = experiment: Test C flooded paddy test; assay type: in vivo, Cyperus difformis; conditions: Flood
Summary of the method: (§2)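 Pots were flooded to 3 cm above the soil surface at treatment, compound applied directly to the paddy water, and that depth held throughout. Plants were kept in a greenhouse for 13 to 15 days, then visually rated against untreated controls.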

crabgrass [2] = experiment: Test C pre-/postemergence test; assay type: in vivo, Digitaria sanguinalis; conditions: for Plant response rating, Crabgrass, Large: 31 g ai/ha, scale 0 to 100 (0 no effect, 100 complete control)
Summary of the method: (§3)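 Compounds in a non-phytotoxic solvent with surfactant applied preemergence to seeded pots and, at the same time, postemergence to plants 2–18 cm tall (1- to 4-leaf stage). Paddy tests: pots flooded to 3 cm, compound applied into the water, depth held throughout.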

Goosegrass = experiment: Test C pre-/postemergence test; assay type: in vivo, Eleusin indica; conditions: for Plant response rating, Goosegrass: 31 g ai/ha, scale 0 to 100 (0 no effect, 100 complete control)
Summary of the method: as §3

yellow nutsedge = experiment: Test C pre-/postemergence test; assay type: in vivo, Cyperus esculentus; conditions: for Plant response rating, Nutsedge, Yellow: 31 g ai/ha, scale 0 to 100 (0 no effect, 100 complete control)
Summary of the method: as §3

velvetleaf = experiment: Test A pre-/postemergence greenhouse test; assay type: in vivo, Abutilon theophrasti; conditions: for Plant response rating, Velvetleaf: 0 to 100 scale where 0 is no effect and 100 is complete control; for Velvetleaf plant response rating: 0 to 100 scale
Summary of the method: as §1

barnyardgrass [3] = experiment: Test A pre-/postemergence greenhouse test; assay type: in vivo, Echinochloa crus-galli; conditions: for Plant response rating, Barnyardgrass: 0 to 100 scale where 0 is no effect and 100 is complete control; for Barnyardgrass plant response rating: 0 to 100 scale
Summary of the method: as §1

green foxtail = experiment: Test C pre-/postemergence test; assay type: in vivo, Setaria viridis; conditions: for Plant response rating, Foxtail, Green: 31 g ai/ha, scale 0 to 100 (0 no effect, 100 complete control)
Summary of the method: as §3

barnyardgrass [4] = experiment: Test C flooded paddy test; assay type: in vivo, Echinochloa crus-galli; conditions: Flood
Summary of the method: as §2

pigweed = experiment: Test C pre-/postemergence test; assay type: in vivo, Amaranthus retroflexus; conditions: for Plant response rating, Pigweed: 31 g ai/ha, scale 0 to 100 (0 no effect, 100 complete control)
Summary of the method: as §3

soybean = experiment: Test C pre-/postemergence test; assay type: in vivo, Glycine max; conditions: for Plant response rating, Soybean: 31 g ai/ha, scale 0 to 100 (0 no effect, 100 complete control)
Summary of the method: as §3

Italian ryegrass = experiment: Test C pre-/postemergence test; assay type: in vivo, Lolium multiflorum; conditions: for Plant response rating, Ryegrass, Italian: 31 g ai/ha, scale 0 to 100 (0 no effect, 100 complete control)
Summary of the method: as §3

duck salad = experiment: Test C flooded paddy test; assay type: in vivo, Heteranthera limosa; conditions: Flood
Summary of the method: as §2

bermudagrass = experiment: Test C pre-/postemergence test; assay type: in vivo, Cynodon dactylon; conditions: for Plant response rating, Bermudagrass: 31 g ai/ha
Summary of the method: as §3

corn [5] = experiment: Test A pre-/postemergence greenhouse test; assay type: in vivo, Zea mays; conditions: for Plant response rating, Corn: 0 to 100 scale where 0 is no effect and 100 is complete control; for Corn plant response rating: 0 to 100 scale
Summary of the method: as §1

johnsongrass = experiment: Test C pre-/postemergence test; assay type: in vivo, Sorghum halepense; conditions: for Plant response rating, Johnsongrass: 31 g ai/ha, scale 0 to 100 (0 no effect, 100 complete control)
Summary of the method: as §3

corn [6] = experiment: Test C pre-/postemergence test; assay type: in vivo, Zea mays; conditions: for Plant response rating, Corn: 31 g ai/ha, scale 0 to 100 (0 no effect, 100 complete control)
Summary of the method: as §3

[7] = Postemergence, 500 g ai/ha, 0 is no effect, 100 is complete control
[8] = Preemergence, 125 g ai/ha, 0 no effect, 100 complete control
[9] = 62 g ai/ha, scale 0 to 100 (0 no effect, 100 complete control)
[10] = 250 g ai/ha, scale 0 to 100, 0 no effect, 100 complete control, 13 to 15 days
[11] = 62 g ai/ha, Preemergence, scale 0 to 100
[12] = 125 g ai/ha, preemergence, scale 0 (no effect) to 100 (complete control)
[13] = preemergence, 250 g ai/ha, scale 0 (no effect) to 100 (complete control)
[14] = 62 g ai/ha, Preemergence, scale 0 to 100 (0 no effect, 100 complete control)
[15] = Preemergence, scale 0 to 100 (0 no effect, 100 complete control)
[16] = Postemergence, 125 g ai/ha, 0 is no effect, 100 is complete control
[17] = 31 g ai/ha, scale 0 to 100 (0 no effect, 100 complete control)
[18] = 62 g ai/ha, scale 0 to 100, 0 no effect, 100 complete control, 13 to 15 days
[19] = 125 g ai/ha, scale 0 to 100, 0 no effect, 100 complete control, 13 to 15 days
[20] = 250 g ai/ha, scale 0 to 100 (0 no effect, 100 complete control)
[21] = preemergence, 125 g ai/ha, scale 0 (no effect) to 100 (complete control)

Compound: CC(Oc1c(C[S+]([O-])c2cccc[n+]2[O-])c(C(F)(F)F)nn1C)C(F)(F)F (stereo not shown) [Compound 77]
- Plant response rating, Crabgrass, Large (crabgrass [1]; Postemergence, 125 g ai/ha): 60
- Crabgrass, Large plant response rating (crabgrass [1]; [7]): 90
- Crabgrass, Large plant response rating (crabgrass [1]; [8]): 80
- Plant response rating, Crabgrass, Large (crabgrass [1]; Preemergence, 500 g ai/ha): 100
- Plant response rating, Sedge, Umbrella (umbrella sedge; [9]): 100
- Plant response rating, Sedge, Umbrella (umbrella sedge; [10]): 100
- Crabgrass, Large plant response rating (crabgrass [2]; [11]): 100
- Crabgrass, Large plant response rating (crabgrass [2]; [12]): 100
- Plant response rating, Crabgrass, Large (crabgrass [2]; Preemergence): 80
- Crabgrass, Large plant response rating (crabgrass [2]; [13]): 100
- Goosegrass plant response rating (Goosegrass; [11]): 100
- Goosegrass plant response rating (Goosegrass; [12]): 100
- Plant response rating, Goosegrass (Goosegrass; Preemergence): 95
- Goosegrass plant response rating (Goosegrass; [13]): 100
- Nutsedge, Yellow plant response rating (yellow nutsedge; [11]): 100
- Nutsedge, Yellow plant response rating (yellow nutsedge; [12]): 100
- Plant response rating, Nutsedge, Yellow (yellow nutsedge; Preemergence): 50
- Nutsedge, Yellow plant response rating (yellow nutsedge; [13]): 100
- Plant response rating, Velvetleaf (velvetleaf; Postemergence, 125 g ai/ha): 50
- Velvetleaf plant response rating (velvetleaf; [7]): 90
- Velvetleaf plant response rating (velvetleaf; [8]): 50
- Plant response rating, Velvetleaf (velvetleaf; Preemergence, 500 g ai/ha): 100
- Plant response rating, Barnyardgrass (barnyardgrass [3]; Postemergence, 125 g ai/ha): 80
- Barnyardgrass plant response rating (barnyardgrass [3]; [7]): 90
- Barnyardgrass plant response rating (barnyardgrass [3]; [8]): 90
- Plant response rating, Barnyardgrass (barnyardgrass [3]; Preemergence, 500 g ai/ha): 100
- Foxtail, Green plant response rating (green foxtail; [11]): 85
- Foxtail, Green plant response rating (green foxtail; [12]): 100
- Plant response rating, Foxtail, Green (green foxtail; Preemergence): 85
- Foxtail, Green plant response rating (green foxtail; [13]): 100
- Plant response rating, Barnyardgrass (barnyardgrass [4]; [9]): 0
- Plant response rating, Barnyardgrass (barnyardgrass [4]; [10]): 75
- Pigweed plant response rating (pigweed; [11]): 100
- Pigweed plant response rating (pigweed; [12]): 100
- Plant response rating, Pigweed (pigweed; Preemergence): 100
- Pigweed plant response rating (pigweed; [13]): 100
- Soybean plant response rating (soybean; [11]): 45
- Soybean plant response rating (soybean; [12]): 70
- Plant response rating, Soybean (soybean; Preemergence): 40
- Soybean plant response rating (soybean; [13]): 100
- Ryegrass, Italian plant response rating (Italian ryegrass; [11]): 98
- Ryegrass, Italian plant response rating (Italian ryegrass; [12]): 100
- Plant response rating, Ryegrass, Italian (Italian ryegrass; Preemergence): 80
- Ryegrass, Italian plant response rating (Italian ryegrass; [13]): 100
- Plant response rating, Ducksalad (duck salad; [9]): 75
- Plant response rating, Ducksalad (duck salad; [10]): 100
- Bermudagrass plant response rating (bermudagrass; [14]): 100
- Bermudagrass plant response rating (bermudagrass; [12]): 100
- Plant response rating, Bermudagrass (bermudagrass; [15]): 100
- Bermudagrass plant response rating (bermudagrass; [13]): 100
- Plant response rating, Corn (corn [5]; Postemergence, 125 g ai/ha): 50
- Corn plant response rating (corn [5]; [7]): 60
- Corn plant response rating (corn [5]; [8]): 50
- Plant response rating, Corn (corn [5]; Preemergence, 500 g ai/ha): 80
- Johnsongrass plant response rating (johnsongrass; [11]): 100
- Johnsongrass plant response rating (johnsongrass; [12]): 100
- Plant response rating, Johnsongrass (johnsongrass; Preemergence): 60
- Johnsongrass plant response rating (johnsongrass; [13]): 100
- Corn plant response rating (corn [6]; [11]): 95
- Corn plant response rating (corn [6]; [12]): 100
- Plant response rating, Corn (corn [6]; Preemergence): 40
- Corn plant response rating (corn [6]; [13]): 100

Compound: Cc1cc[n+]([O-])c(S(=O)(=O)Cc2c(C(F)(F)F)nn(C)c2Cl)c1 [Compound 19]
- Crabgrass, Large plant response rating (crabgrass [1]; [16]): 40
- Crabgrass, Large plant response rating (crabgrass [1]; [7]): 80
- Crabgrass, Large plant response rating (crabgrass [1]; [8]): 70
- Plant response rating, Crabgrass, Large (crabgrass [1]; Preemergence, 500 g ai/ha): 100
- Plant response rating, Sedge, Umbrella (umbrella sedge; [17]): 0
- Plant response rating, Sedge, Umbrella (umbrella sedge; [18]): 0
- Plant response rating, Sedge, Umbrella (umbrella sedge; [19]): 70
- Plant response rating, Sedge, Umbrella (umbrella sedge; [10]): 95
- Crabgrass, Large plant response rating (crabgrass [2]; [11]): 100
- Plant response rating, Crabgrass, Large (crabgrass [2]; Preemergence): 98
- Plant response rating (0 to 100), Crabgrass, Large (crabgrass [2]; Preemergence, 250 g ai/ha): 100
- Goosegrass plant response rating (Goosegrass; [11]): 100
- Plant response rating, Goosegrass (Goosegrass; Preemergence): 100
- Plant response rating (0 to 100), Goosegrass (Goosegrass; Preemergence, 250 g ai/ha): 100
- Nutsedge, Yellow plant response rating (yellow nutsedge; [11]): 70
- Plant response rating, Nutsedge, Yellow (yellow nutsedge; Preemergence): 40
- Velvetleaf plant response rating (velvetleaf; [16]): 20
- Velvetleaf plant response rating (velvetleaf; [7]): 40
- Velvetleaf plant response rating (velvetleaf; [8]): 0
- Plant response rating, Velvetleaf (velvetleaf; Preemergence, 500 g ai/ha): 50
- Barnyardgrass plant response rating (barnyardgrass [3]; [16]): 40
- Barnyardgrass plant response rating (barnyardgrass [3]; [7]): 80
- Barnyardgrass plant response rating (barnyardgrass [3]; [8]): 80
- Plant response rating, Barnyardgrass (barnyardgrass [3]; Preemergence, 500 g ai/ha): 100
- Foxtail, Green plant response rating (green foxtail; [11]): 100
- Plant response rating, Foxtail, Green (green foxtail; Preemergence): 98
- Plant response rating (0 to 100), Foxtail, Green (green foxtail; Preemergence, 250 g ai/ha): 100
- Plant response rating, Barnyardgrass (barnyardgrass [4]; [17]): 0
- Plant response rating, Barnyardgrass (barnyardgrass [4]; [18]): 0
- Plant response rating, Barnyardgrass (barnyardgrass [4]; [19]): 30
- Plant response rating, Barnyardgrass (barnyardgrass [4]; [20]): 75
- Pigweed plant response rating (pigweed; [11]): 100
- Plant response rating, Pigweed (pigweed; Preemergence): 80
- Soybean plant response rating (soybean; [11]): 0
- Plant response rating, Soybean (soybean; Preemergence): 0
- Ryegrass, Italian plant response rating (Italian ryegrass; [11]): 30
- Plant response rating, Ryegrass, Italian (Italian ryegrass; Preemergence): 0
- Plant response rating, Ducksalad (duck salad; [17]): 0
- Plant response rating, Ducksalad (duck salad; [18]): 0
- Plant response rating, Ducksalad (duck salad; [19]): 0
- Plant response rating, Ducksalad (duck salad; [20]): 75
- Bermudagrass plant response rating (bermudagrass; [14]): 100
- Plant response rating, Bermudagrass (bermudagrass; [15]): 85
- Plant response rating (0 to 100), Bermudagrass (bermudagrass; Preemergence, 250 g ai/ha): 100
- Bermudagrass plant response rating (bermudagrass; [21]): 100
- Corn plant response rating (corn [5]; [16]): 0
- Corn plant response rating (corn [5]; [7]): 50
- Corn plant response rating (corn [5]; [8]): 30
- Plant response rating, Corn (corn [5]; Preemergence, 500 g ai/ha): 50
- Johnsongrass plant response rating (johnsongrass; [11]): 80
- Plant response rating, Johnsongrass (johnsongrass; Preemergence): 10
- Plant response rating (0 to 100), Johnsongrass (johnsongrass; Preemergence, 250 g ai/ha): 100
- Corn plant response rating (corn [6]; [11]): 40
- Plant response rating, Corn (corn [6]; Preemergence): 0
- Plant response rating (0 to 100), Corn (corn [6]; Preemergence, 250 g ai/ha): 70
- Corn plant response rating (corn [6]; [21]): 40
